Assay results: PMC5563081, “Modulating Protein-Protein Interactions of the Mitotic Polo-like Kinases to Target Mutant KRAS” (Cell Chemical Biology, 2017)

Legend:
Test in all cases: DiscoverX KINOMEscan
Format in all cases: binding
Conditions in all cases: read-out: % Control
NEK7 = target: T1, NEK7 (Homo sapiens, UniProt Q8TDX7)
T1 construct: purchased DiscoverX KINOMEscan
Protocol: (§1) A panel of 55 proteins (comprising 51 human kinases structurally or functionally related to the PLKs, plus the kinase catalytic domains of PLK1, PLK2, PLK3 and PLK4) were selected for testing by DiscoverX using the KINOMEscan assay platform. Compounds were supplied as 40x DMSO stocks and were tested at a final concentration of 50μM for Poloppin and 5μM for Poloppin-II. Binding interactions were reported as percentage of control where lower numbers indicate stronger binding. A cut-off of <35% was applied to report significant binding.

EIF2AK2 = target: T2, EIF2AK2 (Homo sapiens, UniProt P19525)
T2 construct: purchased DiscoverX KINOMEscan
T2 sequence (P19525 whole entry): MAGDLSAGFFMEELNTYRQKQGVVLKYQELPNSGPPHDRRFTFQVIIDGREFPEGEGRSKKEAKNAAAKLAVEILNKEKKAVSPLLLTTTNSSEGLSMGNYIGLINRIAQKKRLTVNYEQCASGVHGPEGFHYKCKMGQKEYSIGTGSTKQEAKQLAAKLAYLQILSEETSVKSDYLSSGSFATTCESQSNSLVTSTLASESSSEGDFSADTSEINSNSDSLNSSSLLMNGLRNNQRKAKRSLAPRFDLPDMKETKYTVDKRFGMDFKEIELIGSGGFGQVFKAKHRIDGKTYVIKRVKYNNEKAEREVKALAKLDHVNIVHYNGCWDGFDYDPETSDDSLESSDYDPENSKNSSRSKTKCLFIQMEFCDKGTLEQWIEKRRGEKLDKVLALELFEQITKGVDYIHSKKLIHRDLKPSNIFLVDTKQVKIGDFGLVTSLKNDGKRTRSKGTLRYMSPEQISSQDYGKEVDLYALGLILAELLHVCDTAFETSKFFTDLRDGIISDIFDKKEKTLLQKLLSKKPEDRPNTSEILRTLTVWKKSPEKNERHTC
Protocol: as §1

ERN1 = target: T3, ERN1 (Homo sapiens, UniProt O75460)
T3 construct: purchased DiscoverX KINOMEscan
Protocol: as §1

ULK1 = target: T4, ULK1 (Homo sapiens, UniProt O75385)
T4 construct: purchased DiscoverX KINOMEscan
Protocol: as §1

NEK5 = target: T5, NEK5 (Homo sapiens, UniProt Q6P3R8)
T5 construct: purchased DiscoverX KINOMEscan
Protocol: as §1

DSTYK = target: T6, DSTYK (Homo sapiens, UniProt Q6XUX3)
T6 construct: purchased DiscoverX KINOMEscan
Protocol: as §1

BUB1 = target: T7, BUB1 (Homo sapiens, UniProt O43683)
T7 construct: purchased DiscoverX KINOMEscan
Protocol: as §1

WEE2 = target: T8, WEE2 (Homo sapiens, UniProt P0C1S8)
T8 construct: purchased DiscoverX KINOMEscan
Protocol: as §1

EIF2AK4 = target: T9, EIF2AK4 (Homo sapiens, UniProt Q9P2K8, S808G)
T9 construct: purchased DiscoverX KINOMEscan
Protocol: as §1

WNK4 = target: T10, WNK4 (Homo sapiens, UniProt Q96J92)
T10 construct: purchased DiscoverX KINOMEscan
T10 sequence (Q96J92 whole entry): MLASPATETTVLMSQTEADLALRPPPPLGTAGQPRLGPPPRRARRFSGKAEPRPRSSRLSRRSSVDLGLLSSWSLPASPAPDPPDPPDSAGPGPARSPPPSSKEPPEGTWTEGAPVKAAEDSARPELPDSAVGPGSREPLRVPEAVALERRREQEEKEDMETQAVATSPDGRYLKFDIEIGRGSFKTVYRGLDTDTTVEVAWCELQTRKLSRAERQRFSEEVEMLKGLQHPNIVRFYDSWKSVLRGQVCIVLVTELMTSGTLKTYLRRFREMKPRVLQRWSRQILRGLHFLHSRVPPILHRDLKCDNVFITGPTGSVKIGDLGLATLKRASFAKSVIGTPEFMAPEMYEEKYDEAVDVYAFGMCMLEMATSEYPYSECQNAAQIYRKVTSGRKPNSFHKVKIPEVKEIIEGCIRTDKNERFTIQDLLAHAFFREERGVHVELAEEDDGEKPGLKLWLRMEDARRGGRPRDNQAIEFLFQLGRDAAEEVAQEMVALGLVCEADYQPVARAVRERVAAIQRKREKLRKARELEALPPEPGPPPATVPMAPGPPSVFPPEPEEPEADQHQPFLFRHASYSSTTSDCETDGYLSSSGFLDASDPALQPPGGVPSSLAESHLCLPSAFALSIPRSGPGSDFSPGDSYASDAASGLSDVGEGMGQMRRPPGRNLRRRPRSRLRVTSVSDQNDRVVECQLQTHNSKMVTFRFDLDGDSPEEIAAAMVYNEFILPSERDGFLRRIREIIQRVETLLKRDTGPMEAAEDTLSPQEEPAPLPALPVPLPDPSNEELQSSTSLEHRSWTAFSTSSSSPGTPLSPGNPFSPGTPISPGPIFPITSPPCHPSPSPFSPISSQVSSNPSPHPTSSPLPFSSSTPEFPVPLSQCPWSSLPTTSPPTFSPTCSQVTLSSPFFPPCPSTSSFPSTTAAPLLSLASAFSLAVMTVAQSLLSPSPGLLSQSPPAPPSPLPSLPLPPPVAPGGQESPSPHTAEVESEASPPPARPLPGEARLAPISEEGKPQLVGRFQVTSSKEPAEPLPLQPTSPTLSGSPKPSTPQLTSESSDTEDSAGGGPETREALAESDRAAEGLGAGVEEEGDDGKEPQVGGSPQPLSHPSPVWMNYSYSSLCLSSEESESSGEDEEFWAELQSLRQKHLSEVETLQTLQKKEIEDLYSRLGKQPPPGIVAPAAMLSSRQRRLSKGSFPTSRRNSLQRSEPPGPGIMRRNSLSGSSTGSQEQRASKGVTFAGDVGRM
Protocol: as §1

PKMYT1 = target: T11, PKMYT1 (Homo sapiens, UniProt Q99640)
T11 construct: purchased DiscoverX KINOMEscan
Protocol: as §1

[1] = target: T12, PLK3 kinase catalytic domain (Homo sapiens, UniProt Q9H4B4)
T12 construct: PLK3 kinase catalytic domain; purchased DiscoverX KINOMEscan
Protocol: as §1

NEK10 = target: T13, NEK10 (Homo sapiens, UniProt Q6ZWH5)
T13 construct: purchased DiscoverX KINOMEscan
Protocol: as §1

ULK3 = target: T14, ULK3 (Homo sapiens, UniProt Q6PHR2)
T14 construct: purchased DiscoverX KINOMEscan
Protocol: as §1

TTK = target: T15, TTK (Homo sapiens, UniProt P33981)
T15 construct: purchased DiscoverX KINOMEscan
Protocol: as §1

TLK2 = target: T16, TLK2 (Homo sapiens, UniProt Q86UE8)
T16 construct: purchased DiscoverX KINOMEscan
Protocol: as §1

SgK110 = target: T17, SgK110 (Homo sapiens, UniProt P0C264)
T17 construct: purchased DiscoverX KINOMEscan
Protocol: as §1

SBK1 = target: T18, SBK1 (Homo sapiens, UniProt Q52WX2)
T18 construct: purchased DiscoverX KINOMEscan
T18 sequence (Q52WX2 whole entry): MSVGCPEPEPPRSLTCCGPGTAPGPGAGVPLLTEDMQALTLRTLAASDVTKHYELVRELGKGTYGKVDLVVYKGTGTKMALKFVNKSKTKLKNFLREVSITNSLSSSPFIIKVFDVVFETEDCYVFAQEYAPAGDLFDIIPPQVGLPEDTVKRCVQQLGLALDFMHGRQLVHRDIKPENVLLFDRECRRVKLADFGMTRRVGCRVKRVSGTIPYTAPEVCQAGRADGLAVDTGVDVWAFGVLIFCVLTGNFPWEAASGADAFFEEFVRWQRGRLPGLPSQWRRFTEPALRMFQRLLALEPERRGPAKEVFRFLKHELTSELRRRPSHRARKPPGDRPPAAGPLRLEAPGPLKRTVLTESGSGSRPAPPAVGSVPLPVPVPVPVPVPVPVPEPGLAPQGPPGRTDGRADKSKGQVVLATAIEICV
Protocol: as §1

WNK1 = target: T19, WNK1 (Homo sapiens, UniProt Q9H4A3)
T19 construct: purchased DiscoverX KINOMEscan
Protocol: as §1

NEK6 = target: T20, NEK6 (Homo sapiens, UniProt Q9HC98)
T20 construct: purchased DiscoverX KINOMEscan
Protocol: as §1

BMP2K = target: T21, BMP2K (Homo sapiens, UniProt Q9NSY1)
T21 construct: purchased DiscoverX KINOMEscan
Protocol: as §1

NEK1 = target: T22, NEK1 (Homo sapiens, UniProt Q96PY6)
T22 construct: purchased DiscoverX KINOMEscan
Protocol: as §1

GSG2 = target: T23, GSG2 (Homo sapiens, UniProt Q8TF76)
T23 construct: purchased DiscoverX KINOMEscan
Protocol: as §1

TBK1 = target: T24, TBK1 (Homo sapiens, UniProt Q9UHD2)
T24 construct: purchased DiscoverX KINOMEscan
Protocol: as §1

NEK4 = target: T25, NEK4 (Homo sapiens, UniProt P51957)
T25 construct: purchased DiscoverX KINOMEscan
Protocol: as §1

[2] = target: T26, PLK1 kinase catalytic domain (Homo sapiens, UniProt P53350)
T26 construct: PLK1 kinase catalytic domain; purchased DiscoverX KINOMEscan
T26 sequence (P53350 53-305 limits assumed): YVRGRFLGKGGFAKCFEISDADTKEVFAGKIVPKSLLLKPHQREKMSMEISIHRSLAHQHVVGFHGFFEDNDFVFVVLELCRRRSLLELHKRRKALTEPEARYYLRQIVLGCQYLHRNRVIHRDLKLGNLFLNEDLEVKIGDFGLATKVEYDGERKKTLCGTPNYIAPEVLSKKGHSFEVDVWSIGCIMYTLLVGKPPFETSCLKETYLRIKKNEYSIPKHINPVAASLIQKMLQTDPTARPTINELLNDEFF
Protocol: as §1

NEK11 = target: T27, NEK11 (Homo sapiens, UniProt Q8NG66)
T27 construct: purchased DiscoverX KINOMEscan
T27 sequence (Q8NG66 whole entry): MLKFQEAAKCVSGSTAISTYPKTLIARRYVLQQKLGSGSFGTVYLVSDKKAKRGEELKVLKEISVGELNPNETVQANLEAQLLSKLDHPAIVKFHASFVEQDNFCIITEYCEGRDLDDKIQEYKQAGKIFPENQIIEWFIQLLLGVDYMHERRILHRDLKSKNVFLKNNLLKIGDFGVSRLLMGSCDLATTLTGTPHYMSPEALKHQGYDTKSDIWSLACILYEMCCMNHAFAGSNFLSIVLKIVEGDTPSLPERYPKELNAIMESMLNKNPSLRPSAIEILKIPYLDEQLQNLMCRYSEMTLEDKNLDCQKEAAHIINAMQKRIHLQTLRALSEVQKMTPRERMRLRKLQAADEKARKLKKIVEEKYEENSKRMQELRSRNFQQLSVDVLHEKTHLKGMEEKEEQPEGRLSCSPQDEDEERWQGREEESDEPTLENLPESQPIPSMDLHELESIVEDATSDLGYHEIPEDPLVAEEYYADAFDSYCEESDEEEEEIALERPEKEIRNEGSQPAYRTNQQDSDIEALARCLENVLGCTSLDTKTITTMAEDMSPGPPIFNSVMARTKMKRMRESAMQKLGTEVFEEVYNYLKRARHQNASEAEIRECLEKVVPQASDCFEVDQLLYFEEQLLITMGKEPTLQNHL
Protocol: as §1

AURKC = target: T28, AURKC (Homo sapiens, UniProt Q9UQB9)
T28 construct: purchased DiscoverX KINOMEscan
Protocol: as §1

NEK2 = target: T29, NEK2 (Homo sapiens, UniProt P51955)
T29 construct: purchased DiscoverX KINOMEscan
Protocol: as §1

CSNK2A1 = target: T30, CSNK2A1 (Homo sapiens, UniProt P68400)
T30 construct: purchased DiscoverX KINOMEscan
Protocol: as §1

NEK3 = target: T31, NEK3 (Homo sapiens, UniProt P51956)
T31 construct: purchased DiscoverX KINOMEscan
Protocol: as §1

ULK2 = target: T32, ULK2 (Homo sapiens, UniProt Q8IYT8)
T32 construct: purchased DiscoverX KINOMEscan
Protocol: as §1

EIF2AK1 = target: T33, EIF2AK1 (Homo sapiens, UniProt Q9BQI3)
T33 construct: purchased DiscoverX KINOMEscan
Protocol: as §1

[3] = target: T34, PLK4 kinase catalytic domain (Homo sapiens, UniProt O00444)
T34 construct: PLK4 kinase catalytic domain; purchased DiscoverX KINOMEscan
T34 sequence (O00444 12-265 limits assumed): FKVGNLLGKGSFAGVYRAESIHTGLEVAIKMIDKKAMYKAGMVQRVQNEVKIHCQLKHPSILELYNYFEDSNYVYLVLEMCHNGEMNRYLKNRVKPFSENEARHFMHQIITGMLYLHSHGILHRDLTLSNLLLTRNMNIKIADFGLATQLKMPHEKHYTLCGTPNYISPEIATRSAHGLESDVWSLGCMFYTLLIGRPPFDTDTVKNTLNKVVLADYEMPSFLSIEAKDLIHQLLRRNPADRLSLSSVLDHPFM
Protocol: as §1

TLK1 = target: T35, TLK1 (Homo sapiens, UniProt Q9UKI8)
T35 construct: purchased DiscoverX KINOMEscan
Protocol: as §1

AURKA = target: T36, AURKA (Homo sapiens, UniProt O14965)
T36 construct: purchased DiscoverX KINOMEscan
Protocol: as §1

CSNK2A2 = target: T37, CSNK2A2 (Homo sapiens, UniProt P19784)
T37 construct: purchased DiscoverX KINOMEscan
Protocol: as §1

GAK = target: T38, GAK (Homo sapiens, UniProt O14976)
T38 construct: purchased DiscoverX KINOMEscan
T38 sequence (O14976 whole entry): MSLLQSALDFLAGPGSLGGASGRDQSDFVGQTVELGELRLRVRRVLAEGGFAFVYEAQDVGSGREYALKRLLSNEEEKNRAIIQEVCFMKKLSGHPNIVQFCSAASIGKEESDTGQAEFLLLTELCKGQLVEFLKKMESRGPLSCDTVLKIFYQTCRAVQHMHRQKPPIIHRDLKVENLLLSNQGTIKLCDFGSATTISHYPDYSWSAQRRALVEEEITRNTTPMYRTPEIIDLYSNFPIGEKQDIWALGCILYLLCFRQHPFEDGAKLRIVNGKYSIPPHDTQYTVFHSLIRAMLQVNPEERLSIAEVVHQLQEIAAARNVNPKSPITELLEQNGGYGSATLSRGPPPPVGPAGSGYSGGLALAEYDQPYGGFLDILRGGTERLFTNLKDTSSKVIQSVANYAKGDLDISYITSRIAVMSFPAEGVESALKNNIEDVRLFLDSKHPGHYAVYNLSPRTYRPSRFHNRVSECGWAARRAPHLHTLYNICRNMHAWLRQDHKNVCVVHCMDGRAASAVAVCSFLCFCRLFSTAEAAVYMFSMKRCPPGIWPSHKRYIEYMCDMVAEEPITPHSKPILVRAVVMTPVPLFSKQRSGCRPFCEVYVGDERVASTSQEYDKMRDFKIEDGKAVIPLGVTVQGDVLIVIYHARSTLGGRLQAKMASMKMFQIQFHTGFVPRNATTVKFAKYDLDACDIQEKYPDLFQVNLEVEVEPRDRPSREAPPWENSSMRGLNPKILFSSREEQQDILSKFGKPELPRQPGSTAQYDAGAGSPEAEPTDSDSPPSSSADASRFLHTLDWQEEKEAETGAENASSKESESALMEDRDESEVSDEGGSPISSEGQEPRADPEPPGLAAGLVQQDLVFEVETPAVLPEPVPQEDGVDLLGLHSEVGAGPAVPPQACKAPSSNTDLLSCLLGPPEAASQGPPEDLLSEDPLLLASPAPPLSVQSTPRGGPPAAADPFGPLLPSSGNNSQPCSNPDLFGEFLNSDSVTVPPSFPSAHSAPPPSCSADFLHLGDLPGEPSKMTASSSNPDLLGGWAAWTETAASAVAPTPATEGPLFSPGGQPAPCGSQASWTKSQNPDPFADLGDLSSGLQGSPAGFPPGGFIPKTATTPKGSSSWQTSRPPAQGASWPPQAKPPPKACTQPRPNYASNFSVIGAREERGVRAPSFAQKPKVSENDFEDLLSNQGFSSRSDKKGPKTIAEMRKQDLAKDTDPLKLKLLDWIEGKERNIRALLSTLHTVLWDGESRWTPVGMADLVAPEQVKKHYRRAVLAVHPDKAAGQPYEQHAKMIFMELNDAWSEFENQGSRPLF
Protocol: as §1

T1 sequence (Q8TDX7 whole entry): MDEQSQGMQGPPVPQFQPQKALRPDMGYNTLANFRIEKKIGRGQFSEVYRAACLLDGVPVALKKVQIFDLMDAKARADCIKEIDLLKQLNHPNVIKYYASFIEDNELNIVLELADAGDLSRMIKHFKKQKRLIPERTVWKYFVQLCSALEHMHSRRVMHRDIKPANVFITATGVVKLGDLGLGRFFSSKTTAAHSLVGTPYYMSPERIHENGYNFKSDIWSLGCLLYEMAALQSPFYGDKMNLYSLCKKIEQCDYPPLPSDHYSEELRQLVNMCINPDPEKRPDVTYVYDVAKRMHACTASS

O=C(O)CCc1ccc(-c2ccc(Br)cc2)n1-c1ccccc1C(F)(F)F [Poloppin]
remaining binding at 50 µM (NEK7): 68%
remaining binding at 50 µM (EIF2AK2): 69%
remaining binding at 50 µM (ERN1): 76%
remaining binding at 50 µM (ULK1): 84%
remaining binding at 50 µM (NEK5): 83%
remaining binding at 50 µM (DSTYK): 49%
remaining binding at 50 µM (BUB1): 99%
remaining binding at 50 µM (WEE2): 86%
remaining binding at 50 µM (EIF2AK4): 100%
remaining binding at 50 µM (WNK4): 100%
remaining binding at 50 µM (PKMYT1): 98%
remaining binding at 50 µM [1]: 83%
remaining binding at 50 µM (NEK10): 98%
remaining binding at 50 µM (ULK3): 94%
remaining binding at 50 µM (TTK): 85%
remaining binding at 50 µM (TLK2): 90%
remaining binding at 50 µM (SgK110): 94%
remaining binding at 50 µM (SBK1): 61%
remaining binding at 50 µM (WNK1): 100%
remaining binding at 50 µM (NEK6): 96%
remaining binding at 50 µM (BMP2K): 68%
remaining binding at 50 µM (NEK1): 57%
remaining binding at 50 µM (GSG2): 100%
remaining binding at 50 µM (TBK1): 75%
remaining binding at 50 µM (NEK4): 100%
remaining binding at 50 µM [2]: 100%
remaining binding at 50 µM (NEK11): 100%
remaining binding at 50 µM (AURKC): 81%
remaining binding at 50 µM (NEK2): 95%
remaining binding at 50 µM (CSNK2A1): 87%
remaining binding at 50 µM (NEK3): 72%
remaining binding at 50 µM (ULK2): 100%
remaining binding at 50 µM (EIF2AK1): 97%
remaining binding at 50 µM [3]: 88%
remaining binding at 50 µM (TLK1): 100%
remaining binding at 50 µM (AURKA): 81%
remaining binding at 50 µM (CSNK2A2): 84%
remaining binding at 50 µM (GAK): 100%

CN(C)CCNC(=O)c1ccc(-c2ccc(-c3ccc(Cl)cc3)n2-c2ccccc2C(F)(F)F)cc1 [Poloppin-II]
remaining binding at 5 µM (NEK7; NEK7, Poloppin-II 5µM, hit <35%): 79%
remaining binding at 5 µM (EIF2AK2; EIF2AK2, Poloppin-II 5µM, hit <35%): 90%
remaining binding at 5 µM (ERN1; ERN1, Poloppin-II 5µM, hit <35%): 74%
remaining binding at 5 µM (ULK1; ULK1, Poloppin-II 5µM, hit <35%): 84%
remaining binding at 5 µM (NEK5; NEK5, Poloppin-II 5µM, hit <35%): 99%
remaining binding at 5 µM (DSTYK; DSTYK, Poloppin-II 5µM, hit <35%): 75%
remaining binding at 5 µM (BUB1; BUB1, Poloppin-II 5µM, hit <35%): 90%
remaining binding at 5 µM (WEE2; WEE2, Poloppin-II 5µM, hit <35%): 92%
remaining binding at 5 µM (EIF2AK4; EIF2AK4, Poloppin-II 5µM, hit <35%): 97%
remaining binding at 5 µM (WNK4; WNK4, Poloppin-II 5µM, hit <35%): 91%
remaining binding at 5 µM (PKMYT1; PKMYT1, Poloppin-II 5µM, hit <35%): 100%
remaining binding at 5 µM ([1]; PLK3, Poloppin-II 5µM, hit <35%): 74%
remaining binding at 5 µM (NEK10; NEK10, Poloppin-II 5µM, hit <35%): 94%
remaining binding at 5 µM (ULK3; ULK3, Poloppin-II 5µM, hit <35%): 88%
remaining binding at 5 µM (TTK; TTK, Poloppin-II 5µM, hit <35%): 83%
remaining binding at 5 µM (TLK2; TLK2, Poloppin-II 5µM, hit <35%): 94%
remaining binding at 5 µM (SgK110; SgK110, Poloppin-II 5µM, hit <35%): 100%
remaining binding at 5 µM (SBK1; SBK1, Poloppin-II 5µM, hit <35%): 61%
remaining binding at 5 µM (WNK1; WNK1, Poloppin-II 5µM, hit <35%): 97%
remaining binding at 5 µM (NEK6; NEK6, Poloppin-II 5µM, hit <35%): 99%
remaining binding at 5 µM (BMP2K; BMP2K, Poloppin-II 5µM, hit <35%): 85%
remaining binding at 5 µM (NEK1; NEK1, Poloppin-II 5µM, hit <35%): 100%
remaining binding at 5 µM (GSG2; GSG2, Poloppin-II 5µM, hit <35%): 77%
remaining binding at 5 µM (TBK1; TBK1, Poloppin-II 5µM, hit <35%): 80%
remaining binding at 5 µM (NEK4; NEK4, Poloppin-II 5µM, hit <35%): 100%
remaining binding at 5 µM ([2]; PLK1, Poloppin-II 5µM, hit <35%): 100%
remaining binding at 5 µM (NEK11; NEK11, Poloppin-II 5µM, hit <35%): 100%
remaining binding at 5 µM (AURKC; AURKC, Poloppin-II 5µM, hit <35%): 85%
remaining binding at 5 µM (NEK2; NEK2, Poloppin-II 5µM, hit <35%): 94%
remaining binding at 5 µM (CSNK2A1; CSNK2A1, Poloppin-II 5µM, hit <35%): 96%
remaining binding at 5 µM (NEK3; NEK3, Poloppin-II 5µM, hit <35%): 74%
remaining binding at 5 µM (ULK2; ULK2, Poloppin-II 5µM, hit <35%): 100%
remaining binding at 5 µM (EIF2AK1; EIF2AK1, Poloppin-II 5µM, hit <35%): 98%
remaining binding at 5 µM ([3]; PLK4, Poloppin-II 5µM, hit <35%): 90%
remaining binding at 5 µM (TLK1; TLK1, Poloppin-II 5µM, hit <35%): 99%
remaining binding at 5 µM (AURKA; AURKA, Poloppin-II 5µM, hit <35%): 83%
remaining binding at 5 µM (CSNK2A2; CSNK2A2, Poloppin-II 5µM, hit <35%): 92%
remaining binding at 5 µM (GAK; GAK, Poloppin-II 5µM, hit <35%): 100%
